This note sets out measurements from patent US20060009465A1, “Treatment of sleep disorders using sleep target modulators” (priority 2002, published 2006).

This data set relates to Male Wistar rats. As to the kind of experiment: SCORE-2000 sleep-wake assay (EEG/EMG, locomotor activity, body temperature).
[1] abbreviates: Example 2, 10 mg/kg IP at CT-18.
Setting [2] is: Example 3, male Wistar rats, 30 mg/kg.
Where [3] appears, read: Example 2, 3 mg/kg and 10 mg/kg IP at CT-5.

Structures are written as SMILES. Entries after “also recorded” stand apart in the source; their conditions may differ.

For the compound `O=c1n(CCCN2CCN(c3cccc(Cl)c3)CC2)nc2ccccn12` [Trazodone], under setting [1], the REM Sleep Inhibition result was “without evidence”; the “adverse thermoregulatory events post-treatment” value is recorded as “no evidence”; the “disproportional motor inhibition / locomotor activity changes” value was “without evidence; also recorded: no evidence”; the nonREM sleep time entry is “increased nonREM sleep time; also recorded: markedly and significantly increased”. Moreover, the rebound insomnia entry under setting [1] was “without evidence; also recorded: no evidence”. Further, under setting [2], the “Body Temp (CV) Adverse Event” value was “Yes”, the “Disproportional Motor Inhibition” value is “None”, the “Initial Sleep Interference” value is listed as “initially interferes with sleep; also recorded: significant initial sleep interference” and the “REM Sleep Inhibition” value is listed as “inhibits REM sleep; also recorded: significant REM sleep inhibition”. Under setting [2], the “rebound insomnia” value is recorded as “None”.
Regarding `Cl.O=C(O)C1CN(CCCn2nc3ccccn3c2=O)CCN1c1cccc(Cl)c1` (centres unmarked) [HY-2724], the “increasing sleep and sleep consolidation” value (Example 4, male Wistar rats, 30 mg/kg) is given as “ineffective”.
As for `Clc1cccc(N2CCNCC2)c1` [m-CPP, meta-chlorophenylpiperazine], under setting [3], the “interference with sleep, time post-treatment” value lay in the range of 2 to 3 h; the rebound hypersomnolence result is on record as “followed by a rebound hypersomnolence”; the “reduction in nonREM sleep time, lasting post-treatment” value is 2 to 3 h.
